Test results: ChEMBL document CHEMBL1157938, “Cytotoxicity and inhibition of DNA topoisomerase I of polyhydroxylated triterpenoids and triterpenoid glycosides” (Bioorg Med Chem Lett, 2010)
Calls of active or inactive are those of the source. No cut-off for these calls is given here.

Key:
PC-3 = test: Cytotoxicity against human PC3 cells at 25 uM after 48 hrs by WST8 assay; assay type: functional, cell-based
PANC-1 = test: Cytotoxicity against human PANC1 cells at 25 uM after 48 hrs by WST8 assay; assay type: functional, cell-based
HL-60 = test: Cytotoxicity against human HL60 cells at 25 uM after 48 hrs by WST8 assay; assay type: functional, cell-based
A549 = test: Cytotoxicity against human A549 cells at 25 uM after 48 hrs by WST8 assay; assay type: functional, cell-based
DNA topoisomerase 1 = target: T1, DNA topoisomerase 1 (Homo sapiens, UniProt P11387); test: Inhibition of human DNA topoisomerase 1-mediated relaxation of supercoiled DNA by gel electrophoresis
T1 sequence (P11387 whole entry): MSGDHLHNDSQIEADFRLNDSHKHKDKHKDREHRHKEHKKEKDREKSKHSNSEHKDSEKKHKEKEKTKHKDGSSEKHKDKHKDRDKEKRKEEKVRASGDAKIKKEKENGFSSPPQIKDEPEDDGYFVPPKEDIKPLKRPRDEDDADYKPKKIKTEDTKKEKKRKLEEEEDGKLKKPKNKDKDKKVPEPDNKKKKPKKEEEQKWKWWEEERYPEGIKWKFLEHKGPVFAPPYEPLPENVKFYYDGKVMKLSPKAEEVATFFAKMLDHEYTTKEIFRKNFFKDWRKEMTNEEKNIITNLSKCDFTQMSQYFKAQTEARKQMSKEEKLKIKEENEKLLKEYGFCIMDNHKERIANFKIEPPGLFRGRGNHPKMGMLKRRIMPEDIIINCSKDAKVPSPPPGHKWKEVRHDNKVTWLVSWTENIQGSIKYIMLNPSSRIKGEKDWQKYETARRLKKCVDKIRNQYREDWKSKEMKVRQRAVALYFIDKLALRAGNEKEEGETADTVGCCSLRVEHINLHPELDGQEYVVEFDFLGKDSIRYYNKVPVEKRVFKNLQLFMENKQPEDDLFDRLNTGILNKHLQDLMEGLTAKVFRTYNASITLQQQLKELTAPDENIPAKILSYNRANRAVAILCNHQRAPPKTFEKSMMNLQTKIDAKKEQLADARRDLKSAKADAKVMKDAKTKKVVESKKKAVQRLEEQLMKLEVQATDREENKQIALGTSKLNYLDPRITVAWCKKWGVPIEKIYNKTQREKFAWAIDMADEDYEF

[1] = target: DNA topoisomerase 2-alpha (Homo sapiens, UniProt P11388); test: Inhibition of human DNA topoisomerase 2-mediated relaxation of supercoiled DNA by gel electrophoresis
Sequence of DNA topoisomerase 2-alpha (P11388 whole entry): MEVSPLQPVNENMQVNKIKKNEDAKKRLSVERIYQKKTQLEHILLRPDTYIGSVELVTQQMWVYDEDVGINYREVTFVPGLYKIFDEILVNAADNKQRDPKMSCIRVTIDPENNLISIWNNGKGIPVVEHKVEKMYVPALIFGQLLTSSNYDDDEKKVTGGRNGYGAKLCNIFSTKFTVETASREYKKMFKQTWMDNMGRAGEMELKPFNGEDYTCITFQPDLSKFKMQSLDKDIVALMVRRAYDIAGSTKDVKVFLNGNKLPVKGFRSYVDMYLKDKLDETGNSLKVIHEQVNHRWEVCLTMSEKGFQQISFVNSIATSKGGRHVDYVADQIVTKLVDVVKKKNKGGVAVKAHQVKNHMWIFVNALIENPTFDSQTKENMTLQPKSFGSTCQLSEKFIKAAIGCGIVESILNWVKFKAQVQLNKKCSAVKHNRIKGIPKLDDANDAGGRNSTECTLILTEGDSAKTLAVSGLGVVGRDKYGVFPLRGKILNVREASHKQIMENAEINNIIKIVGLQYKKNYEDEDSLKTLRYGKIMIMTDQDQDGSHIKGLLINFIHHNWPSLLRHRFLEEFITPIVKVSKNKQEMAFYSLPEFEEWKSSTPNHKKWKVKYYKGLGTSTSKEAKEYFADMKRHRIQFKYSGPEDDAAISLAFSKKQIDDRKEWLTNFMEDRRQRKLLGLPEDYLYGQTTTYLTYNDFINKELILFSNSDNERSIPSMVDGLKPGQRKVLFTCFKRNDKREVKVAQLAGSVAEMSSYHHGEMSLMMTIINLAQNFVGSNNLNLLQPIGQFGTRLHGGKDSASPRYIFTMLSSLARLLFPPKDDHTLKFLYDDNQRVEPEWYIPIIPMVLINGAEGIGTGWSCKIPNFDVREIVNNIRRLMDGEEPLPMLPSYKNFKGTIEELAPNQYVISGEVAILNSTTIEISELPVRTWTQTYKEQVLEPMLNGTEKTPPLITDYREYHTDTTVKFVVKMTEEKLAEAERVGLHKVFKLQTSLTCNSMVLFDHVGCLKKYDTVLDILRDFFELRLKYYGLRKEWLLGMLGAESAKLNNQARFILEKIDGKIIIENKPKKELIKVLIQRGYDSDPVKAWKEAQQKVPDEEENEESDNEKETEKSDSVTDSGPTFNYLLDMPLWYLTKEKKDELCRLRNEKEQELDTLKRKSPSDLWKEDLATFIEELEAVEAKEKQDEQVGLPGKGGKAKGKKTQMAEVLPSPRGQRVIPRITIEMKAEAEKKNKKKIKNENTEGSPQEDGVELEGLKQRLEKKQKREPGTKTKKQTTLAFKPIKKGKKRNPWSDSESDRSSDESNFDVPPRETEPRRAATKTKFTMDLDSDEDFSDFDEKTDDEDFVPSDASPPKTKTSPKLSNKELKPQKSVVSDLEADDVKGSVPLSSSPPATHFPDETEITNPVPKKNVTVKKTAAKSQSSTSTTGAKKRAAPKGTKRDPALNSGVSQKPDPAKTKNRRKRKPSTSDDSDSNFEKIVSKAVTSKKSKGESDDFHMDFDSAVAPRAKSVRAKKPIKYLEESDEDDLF

Compound | growth inhibition (GI) (PC-3) | growth inhibition (GI) (PANC-1) | growth inhibition (GI) (HL-60) | growth inhibition (GI) (A549) | IC50 (DNA topoisomerase 1) [µM] | IC50 [1] [µM]
CC(C)=CCC[C@@](C)(O)[C@H]1CC[C@]2(C)[C@@H]1[C@H](O)C[C@@H]1[C@@]3(C)CC[C@H](O)C(C)(C)[C@@H]3[C@@H](O[C@@H]3O[C@H](CO)[C@@H](O)[C@H](O)[C@H]3O[C@H]3O[C@@H](C)[C@H](O)[C@@H](O)[C@H]3O)C[C@]12C | inactive | inactive | inactive | inactive | > 250 | > 250
CC(C)=CCC[C@](C)(O[C@@H]1O[C@H](CO[C@H]2O[C@H](CO)[C@@H](O)[C@@H]2O)[C@@H](O)[C@H](O)[C@H]1O)[C@H]1CC[C@]2(C)[C@@H]1[C@H](O)C[C@@H]1[C@@]3(C)CC[C@H](O)C(C)(C)[C@@H]3[C@@H](O)C[C@]12C [GINSENOSIDE F5] | inactive | inactive | inactive | inactive | > 250 | > 250
C[C@H]1[C@H](C)CC[C@]2(C(=O)O[C@@H]3O[C@H](CO)[C@@H](O)[C@H](O)[C@H]3O)CC[C@]3(C(=O)O)C(=CC[C@@H]4[C@@]5(C)CC[C@H](O[C@@H]6O[C@H](CO)[C@@H](O)[C@H](O)[C@H]6O)C(C)(C)[C@@H]5CC[C@]43C)[C@H]12 | inactive | inactive | inactive | inactive | > 250 | > 250
C[C@H]1[C@H](C)CC[C@]2(C(=O)O[C@@H]3O[C@H](CO)[C@@H](O)[C@H](O)[C@H]3O)CC[C@]3(C(=O)O)C(=CC[C@@H]4[C@@]5(C)CC[C@H](O)C(C)(C)[C@@H]5CC[C@]43C)[C@H]12 | inactive | inactive | inactive | inactive | > 250 | > 250
CC(C)=CCC[C@](C)(O)[C@H]1CC[C@]2(C)[C@@H]1[C@H](O)C[C@@H]1[C@@]3(C)CC[C@H](O)C(C)(C)[C@@H]3[C@@H](O[C@@H]3O[C@H](CO)[C@@H](O)[C@H](O)[C@H]3O[C@H]3O[C@@H](C)[C@H](O)[C@@H](O)[C@H]3O)C[C@]12C | inactive | inactive | inactive | inactive | > 250 | > 250
CC(C)=CCC[C@](C)(O[C@@H]1O[C@H](CO)[C@@H](O)[C@H](O)[C@H]1O)[C@H]1CC[C@]2(C)[C@@H]1[C@H](O)C[C@@H]1[C@@]3(C)CC[C@H](O[C@@H]4O[C@H](CO)[C@@H](O)[C@H](O)[C@H]4O)C(C)(C)[C@@H]3CC[C@]12C [GINSENOSIDE F2] | inactive | inactive | inactive | inactive | > 250 | > 250
CC(C)=CC/C=C(/C)[C@H]1CC[C@]2(C)[C@@H]1[C@H](O)C[C@@H]1[C@@]3(C)CC[C@H](O)C(C)(C)[C@@H]3[C@@H](O)C[C@]12C | inactive | inactive | inactive | inactive | > 250 | > 250
CC(C)=CCC[C@](C)(O[C@@H]1O[C@H](CO)[C@@H](O)[C@H](O)[C@H]1O)[C@H]1CC[C@]2(C)[C@@H]1[C@H](O)C[C@@H]1[C@@]3(C)CC[C@H](O)C(C)(C)[C@@H]3[C@@H](O[C@@H]3O[C@H](CO)[C@@H](O)[C@H](O)[C@H]3O[C@@H]3O[C@@H](C)[C@H](O)[C@@H](O)[C@H]3O)C[C@]12C [GINSENOSIDE RE] | inactive | inactive | inactive | inactive | > 250 | > 250
CC(C)=CCC[C@](C)(O[C@@H]1O[C@H](CO[C@@H]2O[C@H](CO)[C@@H](O)[C@H](O)[C@H]2O)[C@@H](O)[C@H](O)[C@H]1O)[C@H]1CC[C@]2(C)[C@@H]1[C@H](O)C[C@@H]1[C@@]3(C)CC[C@H](O[C@@H]4O[C@H](CO)[C@@H](O)[C@H](O)[C@H]4O)C(C)(C)[C@@H]3CC[C@]12C [GYPENOSIDE XVII] | inactive | inactive | inactive | inactive | > 250 | > 250
C[C@H]1[C@H](C)CC[C@]2(C(=O)O)CC[C@]3(C(=O)O)C(=CC[C@@H]4[C@@]5(C)C[C@@H](O)[C@H](O)C(C)(C)[C@@H]5CC[C@]43C)[C@H]12 | inactive | inactive | inactive | inactive | > 250 | > 250
CC(C)=CCC[C@@](C)(O)[C@H]1CC[C@]2(C)[C@@H]1[C@H](O)C[C@@H]1[C@@]3(C)CC[C@H](O[C@@H]4O[C@H](CO)[C@@H](O)[C@H](O)[C@H]4O[C@@H]4O[C@H](CO)[C@@H](O)[C@H](O)[C@H]4O)C(C)(C)[C@@H]3CC[C@]12C | inactive | inactive | inactive | inactive | > 250 | > 250
C[C@H]1[C@H](C)CC[C@]2(C(=O)O[C@@H]3O[C@H](CO)[C@@H](O)[C@H](O)[C@H]3O)CC[C@]3(C(=O)O)C(=CC[C@@H]4[C@@]5(C)CC[C@H](O[C@H]6O[C@@H](C)[C@H](O)[C@@H](O)[C@@H]6O)C(C)(C)[C@@H]5CC[C@]43C)[C@H]12 | inactive | inactive | inactive | inactive | > 250 | > 250
C=C(C)[C@@H]1CC[C@]2(C)CC[C@]3(C)[C@@H](CC[C@@H]4[C@@]5(C)CC[C@H](OC(C)=O)C(C)(C)[C@@H]5CC[C@]43C)[C@H]12 | inactive | inactive | inactive | inactive |  | > 250
CC(C)=CCC[C@](C)(O[C@@H]1O[C@H](CO[C@@H]2O[C@H](CO)[C@@H](O)[C@H](O)[C@H]2O)[C@@H](O)[C@H](O)[C@H]1O)[C@H]1CC[C@]2(C)[C@@H]1[C@H](O)C[C@@H]1[C@@]3(C)CC[C@H](O[C@@H]4O[C@H](CO)[C@@H](O)[C@H](O)[C@H]4O[C@@H]4O[C@H](CO)[C@@H](O)[C@H](O)[C@H]4O)C(C)(C)[C@@H]3CC[C@]12C [GINSENOSIDE RB1] | inactive | inactive | inactive | inactive | > 250 | > 250
C[C@H]1[C@H](C)CC[C@]2(C(=O)O)CC[C@]3(C(=O)O)C(=CC[C@@H]4[C@@]5(C)CC[C@H](O[C@H]6O[C@@H](C)[C@H](O)[C@@H](O)[C@H]6O)C(C)(C)[C@@H]5CC[C@]43C)[C@H]12 | inactive | inactive | inactive | inactive | > 250 | > 250
CC(C)=CCC[C@](C)(O[C@@H]1O[C@H](CO[C@@H]2OC[C@@H](O)[C@H](O)[C@H]2O)[C@@H](O)[C@H](O)[C@H]1O)[C@H]1CC[C@]2(C)[C@@H]1[C@H](O)C[C@@H]1[C@@]3(C)CC[C@H](O[C@@H]4O[C@H](CO)[C@@H](O)[C@H](O)[C@H]4O[C@@H]4O[C@H](CO)[C@@H](O)[C@H](O)[C@H]4O)C(C)(C)[C@@H]3CC[C@]12C [GINSENOSIDE RB3] | inactive | inactive | inactive | inactive | > 250 | > 250
C=C(C)[C@@H]1CC[C@]2(C)CC[C@]3(C)[C@H](CC[C@@H]4[C@@]5(C)CC[C@H](O)C(C)(C)[C@@H]5CC[C@]43C)[C@@H]12 [LUPEOL] | inactive | inactive | inactive | inactive |  | > 250
